From ChEMBL document CHEMBL5154656, “High-Throughput Screening Platform in Postnatal Heart Cells and Chemical Probe Toolbox to Assess Cardiomyocyte Proliferation” (J Med Chem, 2022) come the findings set out here.

The source made the active and inactive calls. No cut-off for these calls is given here.

For data set [1], the system named is Cardiac muscle cell. Briefly: Induction of cell proliferation in postnatal day 5 rat cardiac cells assessed as increase in nuclear to cytoplasmic YAP ratio for 4 to 24 hrs by immunostaining analysis. It counts as functional, cell-based. The note with it: time 4-24 hrs.
Data set [2] concerns Cardiac Muscle Cell. Briefly: Induction of cell proliferation in postnatal day 6 CD1 mouse heart assessed as increase in number of cardiomyocyte by measuring mCherry+ cardiomyocyte nuclei at 0.001 to 1 uM. The following applies: dose 0.001-1 µM, DDE = dose-dependent effect. It is filed as functional, cell-based.
Data set [3] has as its system Cardiac Muscle Cell. Nature of the data set: Induction of cell proliferation in postnatal day 6 mouse cardiac cells assessed as increase in total CM nuclei number. It counts as functional, cell-based.
Data set [4] has as its system Cardiac Muscle Cell. Nature of the data set: Induction of cell proliferation in postnatal day 1 transgenic mouse cardiac cells assessed as increase in bi-nucleation. It is filed as functional, cell-based.
Data set [5] deals with Cardiac Muscle Cell. Nature of the data set: Induction of cell proliferation in postnatal day 1 transgenic mouse cardiac cells assessed as increase in percentage of eGFP-anillin-positive cardiomyocytes. It is filed as functional, cell-based.
A short description of data set [6]: Cytotoxicity against mouse Cardiomyocytes assessed as toxicity at 0.33 to 10 uM. It is filed as cell-based. The note with it: cardiac muscle cell, dose 0.33-10 µM.
The test system of data set [7] is Cardiac Muscle Cell. Nature of the data set: Induction of cell proliferation in postnatal day 6 transgenic mouse cardiac cells assessed as increase in percentage of eGFP-anillin-positive cardiomyocytes. It is filed as functional, cell-based.
Data set [8] deals with Cardiac Muscle Cell. Briefly: Induction of cell proliferation in postnatal day 1 transgenic mouse cardiac cells assessed as increase in total CM nuclei number. It is filed as functional, cell-based.
For data set [9], the system named is Cardiac muscle cell. Briefly: Cytotoxicity against rat Cardiomyocytes assessed as toxicity at 0.33 to 10 uM. It is filed as cell-based. The note with it: dose 0.33-10 µM.
Data set [10] deals with Cardiac muscle cell. Briefly: Induction of cell proliferation in postnatal day 5 rat cardiac cells assessed as increase in total CM nuclei number. It counts as functional, cell-based.
In data set [11] the test system is Cardiac Muscle Cell. Briefly: Induction of cell proliferation in postnatal day 1 mouse cardiac cells assessed as increase in CM numbers at 0.33 to 5 uM. It counts as functional, cell-based. The note with it: dose 0.33-5 µM.
The subject of data set [12] is Cardiac muscle cell. Nature of the data set: Induction of cell proliferation in postnatal day 1 Wistar rat cardiac cells assessed as increase in cardiomyocyte numbers by measuring alphaAct+ at 0.33 to 5 uM. It counts as functional, cell-based. The note with it: dose 0.33-5 µM.
Data set [13] concerns Cardiac Muscle Cell. Briefly: Induction of cell proliferation in postnatal day 6 mouse cardiac cells assessed as increase in CM numbers at 0.33 to 5 uM. It counts as functional, cell-based. The note with it: dose 0.33-5 µM.
Data set [14] has as its system Cardiac Muscle Cell. Nature of the data set: Induction of cell proliferation in postnatal day 1 CD1 mouse cardiac cells assessed as enhancement in cardiomyocyte numbers by measuring alphaAct+. It is filed as functional, cell-based.
Data set [15] concerns Cardiac muscle cell. Briefly: Induction of cell proliferation in postnatal day 6 rat cardiac cells assessed as stimulation in pro-prolierative responses. It counts as functional, cell-based. The following applies: dose 0.1-10 µM, DDE = dose-dependent effect.
In data set [16] the test system is Cardiac muscle cell. Nature of the data set: Induction of cell proliferation in postnatal day 6 Wistar rat cardiac cells assessed as enhancement cardiomyocyte numbers by measuring alphaAct+. It is filed as functional, cell-based.
The subject of data set [17] is Cardiac muscle cell. Briefly: Induction of cell proliferation in postnatal day 6 rat cardiac cells assessed as increase in CM numbers at 0.33 to 5 uM. It is filed as functional, cell-based. The following applies: dose 0.33-5 µM.
The test system of data set [18] is Cardiac Muscle Cell. Nature of the data set: Induction of cell proliferation in postnatal day 6 CD1 mouse cardiac cells assessed as enhancement in cardiomyocyte numbers by measuring alphaAct+. It is filed as functional, cell-based.
The subject of data set [19] is Cardiac Muscle Cell. Briefly: Induction of cell proliferation in postnatal day 6 mouse cardiac cells assessed as stimulation in pro-prolierative responses. It is filed as functional, cell-based. The note with it: dose 0.33-10 µM, DDE = dose-dependent effect.
Data set [20] has as its system Cardiac muscle cell. Nature of the data set: Induction of cell proliferation in postnatal day 1 Wistar rat cardiac cells assessed as enhancement cardiomyocyte numbers by measuring alphaAct+. It counts as functional, cell-based.
Data set [21] has as its system Cardiac muscle cell. Nature of the data set: Pro-proliferative activity in Wistar rat cardiac cells from P1 early postnatal developmental time points assessed as effect on cell number by measuring alphaAct/Ki67 cardiomyocyte nuclei at 0.33 to 10 uM by DAPI analysis. It is filed as functional, cell-based. The note with it: dose 0.33-10 µM.
Data set [22] concerns the target Mitogen-activated protein kinase 11 (Homo sapiens) (UniProt Q15759). Nature of the data set: Inhibition of P38betaMAPK (unknown origin) relative to control. The note with it: concentration not given here.
The subject of data set [23] is Cardiac muscle cell. Briefly: Pro-proliferative activity in Wistar rat cardiac cells from P6 late postnatal developmental time points assessed as effect on cell number by measuring alphaAct/Ki67 cardiomyocyte nuclei at 0.33 to 10 uM by DAPI analysis. It is filed as functional, cell-based. The following applies: dose 0.33-10 µM.
In data set [24] the target is Mitogen-activated protein kinase 14 (Homo sapiens) (UniProt Q16539). Nature of the data set: Inhibition of P38alphaMAPK (unknown origin) relative to control. The note with it: concentration not given here.
Sequence of Mitogen-activated protein kinase 14 (Homo sapiens) (Q16539 whole entry): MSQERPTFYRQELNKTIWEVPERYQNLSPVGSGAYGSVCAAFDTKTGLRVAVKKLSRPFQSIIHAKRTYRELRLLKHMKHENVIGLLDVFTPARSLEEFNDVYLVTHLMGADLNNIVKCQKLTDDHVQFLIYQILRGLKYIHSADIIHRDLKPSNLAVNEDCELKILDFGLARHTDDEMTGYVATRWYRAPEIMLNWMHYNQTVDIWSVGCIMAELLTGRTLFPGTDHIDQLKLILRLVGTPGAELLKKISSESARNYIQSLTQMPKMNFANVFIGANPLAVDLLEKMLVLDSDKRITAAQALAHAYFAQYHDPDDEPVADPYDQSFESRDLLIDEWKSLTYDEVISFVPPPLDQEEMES
Data set [25] has as its system Cardiac muscle cell. Briefly: Induction of cell proliferation in postnatal day 6 rat cardiac cells assessed as increasing in number of cardiomyocytes. It is filed as functional, cell-based. The following applies: dose 0.1-10 µM, DDE = dose-dependent effect.
Data set [26] in a line: Cytotoxicity against mouse Cardiomyocytes assessed as toxicity at > 1 uM. The following applies: cardiac muscle cell. It is filed as cell-based.
For data set [27], the system named is Cardiac muscle cell. Nature of the data set: Cytotoxicity against rat Cardiomyocytes assessed as toxicity at > 1 uM. It counts as cell-based.

Sequence of Mitogen-activated protein kinase 11 (Homo sapiens) (Q15759 whole entry): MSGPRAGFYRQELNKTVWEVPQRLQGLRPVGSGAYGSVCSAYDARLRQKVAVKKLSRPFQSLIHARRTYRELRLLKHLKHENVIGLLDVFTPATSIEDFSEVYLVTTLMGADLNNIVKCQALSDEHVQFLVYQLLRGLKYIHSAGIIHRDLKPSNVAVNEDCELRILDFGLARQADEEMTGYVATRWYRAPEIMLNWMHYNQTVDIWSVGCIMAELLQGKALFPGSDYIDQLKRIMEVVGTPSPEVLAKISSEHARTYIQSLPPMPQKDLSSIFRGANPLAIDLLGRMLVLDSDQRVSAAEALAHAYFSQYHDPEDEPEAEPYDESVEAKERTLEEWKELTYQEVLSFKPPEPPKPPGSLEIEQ

`CN1CCN(Cc2ccc(NC(=O)Cc3ccc(Oc4cc(NC(=O)C5CC5)ncn4)cc3)cc2C(F)(F)F)CC1`: the outcome in the data set on Cardiac muscle cell [1], with Cardiac Muscle Cell [3], in the data set with Cardiac Muscle Cell [4], in the data set on Cardiac Muscle Cell [5], in the data set with Cardiac Muscle Cell [7] and in the data set with Cardiac Muscle Cell [8] was Active. The outcome with Cardiac muscle cell [10] was Active. Moreover, the figures for the Activity result (in the data set on Cardiac Muscle Cell [2]; in [6]; in the data set on Cardiac muscle cell [9]) were “Dde”, “Non-Toxic” and “Non-Toxic”, respectively.

As for `CN1CCN(Cc2ccc(NC(=O)Nc3ccc(Oc4cc(NC(=O)C5CC5)ncn4)cc3)cc2C(F)(F)F)CC1`, the Activity entry with Cardiac Muscle Cell [2] was “Dde”. The result in the data set on Cardiac Muscle Cell [3], in the data set on Cardiac Muscle Cell [4], with Cardiac Muscle Cell [5], in the data set with Cardiac Muscle Cell [7], in the data set with Cardiac Muscle Cell [8] and with Cardiac muscle cell [10] was Active.

Turning to `COc1nccc(-c2c(-c3ccc(F)cc3)ncn2[C@H]2CC[C@H](O)CC2)n1`, the outcome in the data set with Cardiac Muscle Cell [11], with Cardiac muscle cell [12], in the data set with Cardiac Muscle Cell [13], with Cardiac Muscle Cell [14], in the data set with Cardiac muscle cell [16] and in the data set with Cardiac muscle cell [17] was Active. The outcome with Cardiac Muscle Cell [18] and in the data set with Cardiac muscle cell [20] was Active. Also, the Activity result in data set [6] was “Non-Toxic”; in the data set on Cardiac muscle cell [15], “Dde”; in the data set on Cardiac muscle cell [9], “Non-Toxic”; with Cardiac Muscle Cell [19] it was “Dde”.

In the case of `Cc1c[nH]c(-c2cnc(NCCNc3ccc(C#N)cn3)nc2-c2ccc(Cl)cc2Cl)n1` [LADUVIGLUSIB], the Activity entry (in data set [6]; in the data set on Cardiac muscle cell [9]) was “Non-Toxic” in each case.

As a reminder, the inhibition is the relative decrease from the control value, in per cent. A higher inhibition goes with a strong effect. For `O=C1c2ccc(Nc3ccc(F)cc3F)cc2CCc2ccc(OC[C@H](O)CO)cc21`, the outcome in the data set on Cardiac muscle cell [21] and in the data set with Cardiac muscle cell [23] was Active. For the same compound, the inhibition in data set [22] and in data set [24] was 99.8% throughout.

With `Cc1cnc(-c2cnc(NCCNc3ccc(C#N)cn3)nc2-c2ccc(Cl)cc2Cl)[nH]1`, the result in the data set with Cardiac muscle cell [1] was Active. Also, the Activity result with Cardiac muscle cell [25] was “Dde”.

Consider `O=C(NCC(O)CO)c1ccc2c(c1)C(=O)c1ccc(Nc3ccc(F)cc3F)cc1CC2` (stereo not drawn), for which the outcome with Cardiac muscle cell [21] and in the data set with Cardiac muscle cell [23] was Active.

On to `CCn1c(=O)[nH]c2ccccc21`, for which the Activity entry (in [26]; in the data set on Cardiac muscle cell [27]) was “Toxic” each time.

Consider `O=C(OCCN1CCOCC1)c1ccc2c(c1)C(=O)c1ccc(Nc3ccc(F)cc3F)cc1CC2`, for which the outcome in the data set with Cardiac muscle cell [21] and with Cardiac muscle cell [23] was Active.
